In patent publication US20220233549A1, “METHOD FOR ALPHAVIRUS INHIBITION” (priority 2019, published 2022):

How the values were obtained:
Assay type in all cases: cell-based
Influenza = assay: Activity of Example 1 against non-alphaviruses: Influenza
Vaccinia = assay: Activity of Example 1 against non-alphaviruses: Vaccinia; settings: Orthopoxvirus vaccinia
Dengue = assay: Activity of Example 1 against non-alphaviruses: Dengue; settings: Dengue virus
MAYV = assay: Activity of Example 1 against other alphaviruses: MAYV
BK Polyomavirus = assay: Activity of Example 1 against non-alphaviruses: BK Polyomavirus; settings: Betapolyomavirus hominis
ONNV (SG-650) = assay: Activity of Example 1 against other alphaviruses: ONNV
VEEV (ZPC) = assay: microbe, parasite or virus in culture; settings: Venezuelan equine encephalitis virus
SINV (TR-339) = assay: organism not typed
CHIKV 181/clone25 = assay: CHIKV cytopathic effect (CPE) protection assay in Vero cells; settings: Chikungunya virus; CHIKV 181/clone25, Vero cells, MOI=0.01, 48 hrs, protection from CPE (crystal violet, absorbance 595nm)

SMILES	EC50 (CHIKV 181/clone25) [µM]	also measured
CN1C(=O)C(CC(=O)NCC2CCCCC2)Sc2ncccc21 (centres unmarked) [Example 1, N-(cyclohexylmethyl)-2-(1-methyl-2-oxo-2,3-dihydro-1H-pyrido[2,3-b][1,4]thiazin-3-yl)acetamide]	< 10	EC50 (Influenza): > 100 µM; EC50 (Vaccinia): > 100 µM; EC50 (Dengue): > 100 µM; EC50 (MAYV): 10 to 49.9 µM; EC50 (BK Polyomavirus): > 100 µM; EC50 (ONNV (SG-650)): < 10 µM; EC50 (VEEV (ZPC)): < 10 µM; EC50 (SINV (TR-339)): > 100 µM
CC(C)(C)CCNC(=O)CC1Sc2ncccc2NC1=O (centres unmarked) [Example 64, N-(3,3-dimethylbutyl)-2-(2-oxo-2,3-dihydro-1H-pyrido[2,3-b][1,4]thiazin-3-yl)acetamide]	> 100	–
O=C(CC1Nc2ncccc2NC1=O)NCC1CCCCC1 (centres unmarked) [Example 65, N-(cyclohexylmethyl)-2-(2-oxo-1,2,3,4-tetrahydropyrido[2,3-b]pyrazin-3-yl)acetamide]	> 100	–
CC1(CNC(=O)CC2Sc3ncccc3NC2=O)CCCCC1 (centres unmarked) [Example 66, N-((1-methylcyclohexyl)methyl)-2-(2-oxo-2,3-dihydro-1H-pyrido[2,3-b][1,4]thiazin-3-yl)acetamide]	< 10	–
CC(C)CCCNC(=O)CC1Sc2ncccc2NC1=O (centres unmarked) [Example 67, N-(4-methylpentyl)-2-(2-oxo-2,3-dihydro-1H-pyrido[2,3-b][1,4]thiazin-3-yl)acetamide]	10 to 49.9	–
CC(C)(C)CCCNC(=O)CC1Sc2ncccc2NC1=O (centres unmarked) [Example 68, N-(4,4-dimethylpentyl)-2-(2-oxo-2,3-dihydro-1H-pyrido[2,3-b][1,4]thiazin-3-yl)acetamide]	10 to 49.9	–
CC1(C)CCC(CNC(=O)CC2Sc3ncccc3NC2=O)CC1 (centres unmarked) [Example 69, N-((4,4-dimethylcyclohexyl)methyl)-2-(2-oxo-2,3-dihydro-1H-pyrido[2,3-b][1,4]thiazin-3-yl)acetamide]	10 to 49.9	–
CCCCNC(=O)CC1Sc2ncccc2NC1=O (centres unmarked) [Example 70, N-butyl-2-(2-oxo-2,3-dihydro-1H-pyrido[2,3-b][1,4]thiazin-3-yl)acetamide]	50 to 99.9	–
CCCCCNC(=O)CC1Sc2ncccc2NC1=O (centres unmarked) [Example 71, 2-(2-oxo-2,3-dihydro-1H-pyrido[2,3-b][1,4]thiazin-3-yl)-N-pentylacetamide]	10 to 49.9	–
O=C(CC1Sc2ncccc2NC1=O)NCCCC(F)(F)F (centres unmarked) [Example 72, 2-(2-oxo-2,3-dihydro-1H-pyrido[2,3-b][1,4]thiazin-3-yl)-N-(4,4,4-trifluorobutyl)acetamide]	> 100	–
O=C(CC1CCCCC1)NCC1Sc2ncccc2NC1=O (centres unmarked) [Example 73, 2-cyclohexyl-N-((2-oxo-2,3-dihydro-1H-pyrido[2,3-b][1,4]thiazin-3-yl)methyl)acetamide]	10 to 49.9	–
O=C(CC1Sc2ncccc2NC1=O)NCCC(F)(F)F (centres unmarked) [Example 74, 2-(2-oxo-2,3-dihydro-1H-pyrido[2,3-b][1,4]thiazin-3-yl)-N-(3,3,3-trifluoropropyl)acetamide]	> 100	–
CCC(C)(C)CNC(=O)CC1Sc2ncccc2NC1=O (centres unmarked) [Example 75, N-(2,2-dimethylbutyl)-2-(2-oxo-2,3-dihydro-1H-pyrido[2,3-b][1,4]thiazin-3-yl)acetamide]	< 10	–
CCC1(CNC(=O)CC2Sc3ncccc3NC2=O)CCCCC1 (centres unmarked) [Example 76, N-((1-ethylcyclohexyl)methyl)-2-(2-oxo-2,3-dihydro-1H-pyrido[2,3-b][1,4]thiazin-3-yl)acetamide]	< 10	–
O=C(CC1Sc2ncccc2NC1=O)NCC1(O)CCCCC1 (centres unmarked) [Example 77, N-((1-hydroxycyclohexyl)methyl)-2-(2-oxo-2,3-dihydro-1H-pyrido[2,3-b][1,4]thiazin-3-yl)acetamide]	< 10	–
O=C(CC1Sc2ncccc2NC1=O)NCC1(F)CCCCC1 (centres unmarked) [Example 78, N-((1-fluorocyclohexyl)methyl)-2-(2-oxo-2,3-dihydro-1H-pyrido[2,3-b][1,4]thiazin-3-yl)acetamide]	< 10	–
COC1(CNC(=O)CC2Sc3ncccc3NC2=O)CCCCC1 (centres unmarked) [Example 79, N-((1-methoxycyclohexyl)methyl)-2-(2-oxo-2,3-dihydro-1H-pyrido[2,3-b][1,4]thiazin-3-yl)acetamide]	< 10	–
NC1(CNC(=O)CC2Sc3ncccc3NC2=O)CCCCC1 (centres unmarked) [Example 80, N-((1-aminocyclohexyl)methyl)-2-(2-oxo-2,3-dihydro-1H-pyrido[2,3-b][1,4]thiazin-3-yl)acetamide]	> 100	–
CCCOC1(CNC(=O)CC2Sc3ncccc3NC2=O)CCCCC1 (centres unmarked) [Example 81, 2-(2-oxo-2,3-dihydro-1H-pyrido[2,3-b][1,4]thiazin-3-yl)-N-((1-propoxycyclohexyl)methyl)ace-tamide]	10 to 49.9	–
COCC1(CNC(=O)CC2Sc3ncccc3NC2=O)CCCCC1 (centres unmarked) [Example 82, N-((1-(methoxymethyl)cyclohexyl)meth-yl)-2-(2-oxo-2,3-dihydro-1H-pyrido[2,3-b][1,4]thiazin-3-yl)acetamide]	50 to 99.9	–
O=C(CC1Sc2cnccc2NC1=O)NCC1CCCCC1 (centres unmarked) [Example 83, N-(cyclohexylmethyl)-2-(2-oxo-2,3-dihydro-1H-pyrido[3,4-b][1,4]thiazin-3-yl)acetamide]	> 100	–
O=C(CC1Sc2ccncc2NC1=O)NCC1CCCCC1 (centres unmarked) [Example 84, N-(cyclohexylmethyl)-2-(3-oxo-3,4-dihydro-2H-pyrido[4,3-b][1,4]thiazin-2-yl)acetamide]	> 100	–
O=C(CC1Sc2ncccc2NC1=O)NCC1=CCCCC1 (centres unmarked) [Example 85, N-(cyclohex-1-en-1-ylmethyl)-2-(2-oxo-2,3-dihydro-1H-pyrido[2,3-b][1,4]thiazin-3-yl)acetamide]	10 to 49.9	–
O=C(CC1Sc2ncccc2NC1=O)NCC1CC=CCC1 (centres unmarked) [Example 86, N-(cyclohex-3-en-1-ylmethyl)-2-(2-oxo-2,3-dihydro-1H-pyrido[2,3-b][1,4]thiazin-3-yl)acetamide]	< 10	–
O=C(CC1Sc2ncc(Br)cc2NC1=O)NCC1CCCCC1 (centres unmarked) [Example 87, 2-(7-bromo-2-oxo-2,3-dihydro-1H-pyrido[2,3-b][1,4]thiazin-3-yl)-N-(cyclohexylmethyl)acetamide]	10 to 49.9	–
O=C(CC1Cc2ncccc2NC1=O)NCC1CCCCC1 (centres unmarked) [Example 88, N-(cyclohexylmethyl)-2-(2-oxo-1,2,3,4-tetrahydro-1,5-naphthyridin-3-yl)acetamide]	10 to 49.9	–
O=C(CC1Cc2ncccc2NC1=O)NCC1(F)CCCCC1 (centres unmarked) [Example 89, N-((1-fluorocyclohexyl)methyl)-2-(2-oxo-1,2,3,4-tetrahydro-1,5-naphthyridin-3-yl)acetamide]	10 to 49.9	–
O=C(CC1Cc2ncccc2NC1=O)NCc1ccc(F)cc1 (centres unmarked) [Example 90, N-(4-fluorobenzyl)-2-(2-oxo-1,2,3,4-tetrahydro-1,5-naphthyridin-3-yl)acetamide]	10 to 49.9	–
O=C(CC1Oc2ncccc2NC1=O)NCC1CCCCC1 (centres unmarked) [Example 91, N-(cyclohexylmethyl)-2-(2-oxo-2,3-dihydro-1H-pyrido[2,3-b][1,4]oxazin-3-yl)acetamide]	10 to 49.9	–
O=C(CC1CNc2cccnc2S1)NCC1CCCCC1 (centres unmarked) [Example 92, N-(cyclohexylmethyl)-2-(2,3-dihydro-1H-pyrido[2,3-b][1,4]thiazin-3-yl)acetamide]	10 to 49.9	–
